Values quoted from earlier work, collected in US20080214876A1, “Process for Preparation of Pharmaceutically Pure Anhydrous Calcipotriol” (INSTYTUT FARMACEUTYCZNY, priority 2004, published 2008).

Tests used:
epidermal keratinocytes = conditions: literature: Castelijins et al., Acta Derm. Venereol. 79, 111 (1999)
calcium metabolism = conditions: rats; relative to calcitriol; Binderup, Bramm, Biochem. Pharmacol. 37, 889 (1988)
[1] = pharmaceutical formulations

Row | Structure (SMILES) | activity in inhibiting undesirable proliferation of epidermal keratinocytes (epidermal keratinocytes) | weaker effect on calcium metabolism compared to calcitriol (calcium metabolism) | stability in some solutions [1]
1 | C=C1/C(=C\C=C2/CCC[C@]3(C)[C@@H]([C@H](C)/C=C/[C@@H](O)C4CC4)CC[C@@H]23)C[C@@H](O)C[C@@H]1O [calcipotriol, (1α,3β3,5Z,7E,22E,24S)-24-cyclopropyl-9,10-secochola-5,7,10(19),22-tetraene-1,3,24-triol] | strong activity | 100-200 fold | poor stability
2 | C=C1/C(=C\C=C2/CCC[C@]3(C)[C@@H]([C@H](C)CCCC(C)(C)O)CC[C@@H]23)C[C@@H](O)C[C@@H]1O [calcitriol, 1,25-dihydroxycholecalciferol] | strong activity |  | 
3 | C=C1/C(=C\C=C2/CCC[C@]3(C)[C@@H]([C@H](C)CC[C@@H](O)C(C)C)CC[C@@H]23)C[C@@H](O)C[C@@H]1O [tacalcitol, 1α,24R-dihydroxycholecalciferol] | strong activity |  | 
